Assay results taken from patent EP0107214A2, “Pharmaceutical compositions containing benzoyl-phenyl ureas with anti-tumour activity” (DUPHAR INTERNATIONAL RESEARCH B.V, priority 1982, dated 1984).
Several values for one entry are separate records, joined by “and”; a condition that tells them apart may be missing. Identical values can stand only once. Like-named read-outs stand apart in the source and are kept apart here.

Assays:
[1] = system: Ridgeway Osteogenic Sarcoma (ROS); assay: Ridgeway Osteogenic Sarcoma (ROS) in AKR mice, tumor growth after intraperitoneal injection; format: in vivo
Method: (§1) Ridgeway Osteogenic Sarcoma (ROS) in AKR mice. The advantage of the use of such a localized, non-metastatic tumor for studies on drug effects is that pertuba- tions of tumor growth and longevity of the mice are attributable to a direct effect on the primary tumor. • III. Skin carcinoma (Ca 1025) in AKR mice. This tumor represents a second histologic cell type arising from skin and is less malignant than malignant melanoma.
(§2) The compounds were tested by intraperitoneal injections of suspensions of the compounds in an aqueous solution of polyvinyl pyrrolidone.
Doses of diflubenzuron of 20 mg on day 0 (Table VI), 20 mg each on days 0 and 3; and 20 mg each on days 0, 1, 2, 5 and 6 (Table VII) were used in this test model. […]

[2] = system: melanoma B-16 cells; assay: Malignant melanoma B-16 cells in vitro, cell count by Coulter Counter; format: cell-based; details: Mus musculus; for activity at 50 µg/mL: B16, 48 h, 50 ug/ml
Method: Cells of malignant melanomas B-16 grow as a monolayer. The doubling time of this type of cells in a cell--culture is 12 to 16 hours. For this experiment 6 multi-well tissue culture plates having a flat bottom with a surface area of 6 cm^2 appeared to be suitable and have been used.
On day 0 a quantity of melanoma B-16 cells were brought on the cell-culture plates.
The test compounds were sonicated and then incubated without cells for 3 hours at 37°C.
Then the compound to be tested was administered to the plates with melanoma B-16 cells in the desired quantity (each test was done in triplicate). Thereafter the plates were incubated in a C02-incubator for 20 hours at 37°C. Then the incubation was stopped by removing the culture medium containing the test compound, the cells were washed twice, and fresh culture medium was added.
48 Hours after starting the incubation step the number of cells on each plate was measured by means of a microcell Coulter Counter. The results so obtained have been expressed as "percentage of controll cell growth".
In the above experiment the compounds to be tested have been used in the form of a suspension. Since it is not quite clear how much of the active compounds is dissolved, the above results cannot be compared very well.
Therefore a number of compounds has been dissolved in ethanol.

[3] = system: Skin carcinoma (Ca 1025); assay: Skin carcinoma (Ca 1025) in AKR mice, tumor growth after intraperitoneal injection; format: in vivo; details: single injection 20 mg
Method: as §1, §2
The compound PH 60-44 was also tested in this model.

[4] = system: B-16 malignant melanoma; assay: B-16 malignant melanoma in C57BL/6 mice, tumor growth after intraperitoneal injection; format: in vivo
Method: as §2
Mice with malignant melanomas were injected with 20 mg or 40 mg diflubenzuron in suspension or with the suspension medium (blank).
Finally compound 2) was given in doses of 20 mg each on days 0, 1 and 2.
Animals with growing tumors were treated with 100 mg of diflubenzuron alone (suspended in an aqueous solution of polyvinylpyrrolidone) or in combination with a metabolic inhibitor or a metabolic inducer according to the schedule given in Table XI.

[5] = 5 x 20 mg, days 0, 1, 2, 5 and 6
[6] = 100 mg (20 mg days 0-4) after 2.4 mg cobaltous chloride (1.2 mg on days -2 and -1)
[7] = 100 mg (20 mg days 0-4) after 4 mg phenobarbital (1 mg on days -4 to -1)
[8] = 100 mg (20 mg days 0-4) after 6.4 mg 3-methylcholanthrene (1.6 mg on days -4 to -1)
[9] = 100 mg total, 20 mg each on day 0, 1, 2, 3 and 4
[10] = 2 x 20 mg, on day 0 and day 2 or 4
[11] = single injection 40 mg, i.p. suspension

O=C(NC(=O)c1c(F)cccc1F)Nc1ccc(Cl)cc1 [Compound 1, 1-(2,6-difluorobenzoyl)-3-(4-chlorophenyl)urea]
% change in tumor mass day 1 ([1]; 20 mg on day 0): 14.4 (29) %
% change in tumor mass day 2 ([1]; 20 mg on day 0): 48.5 (19) %
% change in tumor mass day 1 ([1]; 2 x 20 mg, days 0 and 3): 32.0 (10) %
% change in tumor mass day 3 ([1]; 2 x 20 mg, days 0 and 3): 104 (10) %
% change in tumor mass day 4 ([1]; 2 x 20 mg, days 0 and 3): 213 (10) %
% change in tumor mass day 5 ([1]; 2 x 20 mg, days 0 and 3): 298 (10) %
% change in tumor mass day 7 ([1]; 2 x 20 mg, days 0 and 3): 511 (10) %
% change in tumor mass day 14 ([1]; 2 x 20 mg, days 0 and 3): 1682 (10) %
% change in tumor mass day 21 ([1]; 2 x 20 mg, days 0 and 3): 4051 (10) %
% change in tumor mass day 1 [1, 5]: 12.2 (10) %
% change in tumor mass day 2 [1, 5]: 43.3 (10) %
% change in tumor mass day 5 [1, 5]: 285 (10) %
% change in tumor mass day 7 [1, 5]: 423 (10) %
% change in tumor mass day 14 [1, 5]: 2495 (10) %
% change in tumor mass day 21 [1, 5]: 8880 (8) %
activity at 50 µg/mL ([2]; dissolved in ethanol, read-out: Percentage of controll cell growth (solution)): 48%
activity at 50 µg/mL ([2]; suspension, read-out: Percentage of controll cell growth (suspension)): 79%
activity at 500 µg/mL ([2]; B16, suspension, 20 hours incubation, cells counted at 48 hours, read-out: Percentage of controll cell growth when tested in an amount of 5 x 10^2 µg/ml): 78%
activity at 5000 µg/mL ([2]; B16, suspension, 20 hours incubation, cells counted at 48 hours, read-out: Percentage of controll cell growth when tested in an amount of 5 x 10^3 µg/ml): 41%
% change in tumor mass day 1 [3]: -3.8 (35) %
% change in tumor mass day 2 [3]: 19.9 (7) %
% change in tumor mass day 1 [4, 6]: 14.4 (16) %
% change in tumor mass day 2 [4, 6]: 20.9 (12) %
% change in tumor mass day 3 [4, 6]: 36.4 (12) %
% change in tumor mass day 4 [4, 6]: 39.3 (12) %
% change in tumor mass day 5 [4, 6]: 59.7 (12) %
% change in tumor mass day 10 [4, 6]: 306 (12) %
% change in tumor mass day 14 [4, 6]: 782 (9) %
% change in tumor mass day 1 [4, 7]: -19.4 (23) %
% change in tumor mass day 2 [4, 7]: -10.4 (23) %
% change in tumor mass day 3 [4, 7]: 0.8 (23) %
% change in tumor mass day 4 [4, 7]: 21.7 (23) %
% change in tumor mass day 5 [4, 7]: 72.1 (23) %
% change in tumor mass day 10 [4, 7]: 293 (23) %
% change in tumor mass day 14 [4, 7]: 572 (10) %
% change in tumor mass day 1 [4, 8]: -29.2 (34) %
% change in tumor mass day 2 [4, 8]: -23.5 (34) %
% change in tumor mass day 3 [4, 8]: -20.6 (32) %
% change in tumor mass day 4 [4, 8]: -15.1 (29) %
% change in tumor mass day 5 [4, 8]: 5.7 (21) %
% change in tumor mass day 10 [4, 9]: 266 (17) %
% change in tumor mass day 14 [4, 9]: 378 (12) %
% change in tumor mass on day 11 [4, 9]: 891 (12) %
% change in tumor mass day 2 ([4]; 100 mg total, 20 mg each on day 0, 1, 2, 3 and 4, listed as diflubenzuron): -8.6 (17) % and -12.5 (22) % and -7.2 (12) %
% change in tumor mass day 1 [4, 10]: -11.7 (26) %
% change in tumor mass day 2 [4, 10]: 18.6 (26) %
% change in tumor mass day 3 [4, 10]: 92.6 (16) %
% change in tumor mass day 4 [4, 10]: 143 (26) %
% change in tumor mass day 5 [4, 10]: 178 (10) %
% change in tumor mass day 6 [4, 10]: 264 (26) %
% change in tumor mass day 15 [4, 10]: 1187 (16) %
reduction in tumor size within 24 hours of treatment ([4]; initial injection of 20 mg, two experiments, listed as diflubenzuron): 11.7% and 13.4%
initial decrease (tumor size) ([4]; injection of 40 mg): 22%
% change in tumor mass day 2 ([4]; single injection 20 mg, i.p. suspension): 18.6(26) %
% change in tumor mass day 1 ([4]; single injection 20 mg, i.p. suspension, listed as diflubenzuron): -11.7(26) % and -13.4(22) %
initial doubling time (in days) 0-2 days ([4]; single injection 20 mg, calculated from change within 48 hours after treatment, listed as diflubenzuron): 10.4 days and 10.4(26) days
% change in tumor mass day 1 [4, 11]: -22.4(8) %
% change in tumor mass day 2 [4, 11]: -14.7(8) %
initial doubling time (in days) 0-2 days ([4]; single injection 40 mg, negative = time for decrease to one-half size): -6.7(8) days
